Laboratory results as given in PubChem BioAssay AID192 (DTP/NCI, 2004).
“And” between values parts separate entries of the source, which are not always exact repeats. Equal entries are not always repeated. Inconclusive results and toxic doses are left out.

Test system: BDF1 mice, B16 melanoma ip, median survival T/C
Experiment: NCI In Vivo Anticancer Drug Screen. Data for tumor model B16 Melanoma (intraperitoneal) in B6D2F1 (BDF1) mice
Conditions: endpoint: median survival time, higher = longer survival
In short: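 Compounds were tested in mice carrying transplantable tumors. Survival or tumor size was recorded, and each value is the treated-group measurement (T) divided by that of the vehicle-treated control group (C).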

[1] = dose: 100.0 mg/kg/injection, schedule: Q01DX009 (ip), vehicle: Klucel (hydroxypropylcellulose) (HPC)
[2] = dose: 200.0 mg/kg/injection, schedule: Q01DX009 (ip), vehicle: Klucel (hydroxypropylcellulose) (HPC)
[3] = dose: 400.0 mg/kg/injection, schedule: Q01DX009 (ip), vehicle: Klucel (hydroxypropylcellulose) (HPC)
[4] = dose: 12.5 mg/kg/injection, schedule: Q01DX009 (ip), vehicle: saline with Tween-80
[5] = dose: 25.0 mg/kg/injection, schedule: Q01DX009 (ip), vehicle: saline with Tween-80
[6] = dose: 50.0 mg/kg/injection, schedule: Q01DX009 (ip), vehicle: saline with Tween-80
[7] = dose: 12.5 mg/kg/injection, schedule: Q01DX009 (ip), vehicle: Klucel (hydroxypropylcellulose) (HPC)
[8] = dose: 25.0 mg/kg/injection, schedule: Q01DX009 (ip), vehicle: Klucel (hydroxypropylcellulose) (HPC)
[9] = dose: 50.0 mg/kg/injection, schedule: Q01DX009 (ip), vehicle: Klucel (hydroxypropylcellulose) (HPC)
[10] = dose: 6.0 mg/kg/injection, schedule: Q01DX009 (ip), vehicle: Klucel (hydroxypropylcellulose) (HPC)

`CC(C)(C)OC(=O)C(CSSCC(NC(=O)OCc1ccccc1)C(=O)OC(C)(C)C)NC(=O)OCc1ccccc1` (stereo not drawn) was tested, and the T/C (dose: 75.0 mg/kg/injection, schedule: Q01DX009 (ip), vehicle: Klucel (hydroxypropylcellulose) (HPC)) was 94 % of control, the T/C (dose: 150.0 mg/kg/injection, schedule: Q01DX009 (ip), vehicle: Klucel (hydroxypropylcellulose) (HPC)) was 100 % of control and the T/C (dose: 300.0 mg/kg/injection, schedule: Q01DX009 (ip), vehicle: Klucel (hydroxypropylcellulose) (HPC)) was 88 % of control.
With `COc1ccc(OC)c(/C=C/C(=O)c2ccc(Cl)cc2)c1` the T/C [1] was 92 % of control, the T/C (dose: 100.0 mg/kg/injection, schedule: Q04DX003 (ip), vehicle: Klucel (hydroxypropylcellulose) (HPC)) was 103 % of control and the T/C [2] was 92 % of control. For the same molecule, the T/C (dose: 200.0 mg/kg/injection, schedule: Q04DX003 (ip), vehicle: Klucel (hydroxypropylcellulose) (HPC)) was 109 % of control, the T/C [3] was 89 % of control and the T/C (dose: 400.0 mg/kg/injection, schedule: Q04DX003 (ip), vehicle: Klucel (hydroxypropylcellulose) (HPC)) was 103 % of control.
`C(C#CCN1CCOCC1)#CCN1CCOCC1` was tested, and the T/C [4] was 102 % of control and 103 % of control, the T/C [5] was 97 % of control and the T/C [6] was 93 % of control and 96 % of control. The T/C (dose: 100.0 mg/kg/injection, schedule: Q01DX009 (ip), vehicle: saline with Tween-80) was 90 % of control and 97 % of control (2×), the T/C (dose: 200.0 mg/kg/injection, schedule: Q01DX009 (ip), vehicle: saline with Tween-80) was 90 % of control and 97 % of control (2×) and the T/C (dose: 400.0 mg/kg/injection, schedule: Q01DX009 (ip), vehicle: saline with Tween-80) was 90 % of control and 97 % of control and 107 % of control.
In the case of `CC(CCc1ccccc1)NC(C)C(O)c1ccc(O)cc1` (stereo not drawn), the T/C (dose: 6.25 mg/kg/injection, schedule: Q01DX009 (ip), vehicle: Klucel (hydroxypropylcellulose) (HPC)) was 93 % of control, the T/C [7] was 105 % of control and the T/C [8] was 94 % of control. For the same molecule, the T/C [9] was 105 % of control and the T/C [1] was 115 % of control.
For `CCOC(=O)C1(C)OCCO1`, the T/C (dose: 100.0 mg/kg/injection, schedule: Q04DX003 (ip), vehicle: saline) was 95 % of control, the T/C (dose: 200.0 mg/kg/injection, schedule: Q04DX003 (ip), vehicle: saline) was 104 % of control and the T/C (dose: 400.0 mg/kg/injection, schedule: Q04DX003 (ip), vehicle: saline) was 104 % of control.
For `C/C(=N\O)c1ccccn1`, the T/C (dose: 50.0 mg/kg/injection, schedule: Q01DX009 (ip), vehicle: other) was 110 % of control, the T/C (dose: 100.0 mg/kg/injection, schedule: Q01DX009 (ip), vehicle: other) was 111 % of control and the T/C (dose: 200.0 mg/kg/injection, schedule: Q01DX009 (ip), vehicle: other) was 97 % of control. The T/C (dose: 400.0 mg/kg/injection, schedule: Q01DX009 (ip), vehicle: other) was 90 % of control.
`COc1ccc(NC(=O)Nc2ccc(C)c(Cl)c2)cc1` was tested, and the T/C (dose: 100.0 mg/kg/injection, schedule: Q01DX009 (sc), vehicle: olive oil, sesame oil, peanut oil) was 109 % of control, the T/C (dose: 200.0 mg/kg/injection, schedule: Q01DX009 (sc), vehicle: olive oil, sesame oil, peanut oil) was 100 % of control and the T/C (dose: 400.0 mg/kg/injection, schedule: Q01DX009 (sc), vehicle: olive oil, sesame oil, peanut oil) was 98 % of control.
For `C/C=C/C(=O)OCC1CCN(C)C1` (stereo not drawn), the T/C (dose: 50.0 mg/kg/injection, schedule: Q01DX009 (ip), vehicle: water) was 98 % of control, the T/C (dose: 100.0 mg/kg/injection, schedule: Q01DX009 (ip), vehicle: water) was 107 % of control and the T/C (dose: 200.0 mg/kg/injection, schedule: Q01DX009 (ip), vehicle: water) was 90 % of control.
`CCC(=O)C(CC)c1ccc(OC)cc1OC` (stereo not drawn) was tested, and the T/C [1] was 96 % of control, the T/C [2] was 103 % of control and the T/C [3] was 100 % of control.
In the case of `NC(Cc1cc(I)c(O)c(I)c1)C(=O)O` (stereo not drawn), the T/C (dose: 25.0 mg/kg/injection, schedule: Q01DX009 (ip), vehicle: saline) was 106 % of control, the T/C (dose: 50.0 mg/kg/injection, schedule: Q01DX009 (ip), vehicle: saline) was 112 % of control and the T/C (dose: 100.0 mg/kg/injection, schedule: Q01DX009 (ip), vehicle: carboxymethylcellulose (CMC)) was 108 % of control. The T/C (dose: 100.0 mg/kg/injection, schedule: Q01DX009 (ip), vehicle: saline) was 116 % of control, the T/C (dose: 200.0 mg/kg/injection, schedule: Q01DX009 (ip), vehicle: carboxymethylcellulose (CMC)) was 115 % of control and the T/C (dose: 200.0 mg/kg/injection, schedule: Q01DX009 (ip), vehicle: saline) was 110 % of control. The T/C (dose: 400.0 mg/kg/injection, schedule: Q01DX009 (ip), vehicle: saline) was 100 % of control.
With `Cc1cc2c3ccccc3ccc2[n+]2ccccc12` the T/C (dose: 6.25 mg/kg/injection, schedule: Q01DX009 (ip), vehicle: saline) was 95 % of control and the T/C (dose: 12.5 mg/kg/injection, schedule: Q01DX009 (ip), vehicle: saline) was 93 % of control.
For `Oc1ccc2ccccc2c1C1=NNc2n[nH]c(=S)n2N1`, the T/C [7] was 100 % of control, the T/C [8] was 103 % of control and the T/C [9] was 112 % of control.
With `NC(=O)C(CC(=O)OCc1ccccc1)NC(=O)OCc1ccccc1` (stereo not drawn) the T/C [1] was 118 % of control, the T/C [2] was 107 % of control and the T/C [3] was 113 % of control.
With `CCCCCCCCNc1cc2c3c(c1)CCCN3CCC2` the T/C (dose: 0.75 mg/kg/injection, schedule: Q01DX009 (ip), vehicle: Klucel (hydroxypropylcellulose) (HPC)) was 88 % of control, the T/C (dose: 1.5 mg/kg/injection, schedule: Q01DX009 (ip), vehicle: Klucel (hydroxypropylcellulose) (HPC)) was 97 % of control and the T/C [10] was 90 % of control.
With `CC(=O)OC1CCC2(C)C(CC(=O)C(C)C23CCC2(C=COC2)O3)C1(C)C` (stereo not drawn) the T/C [10] was 101 % of control, the T/C (dose: 12.0 mg/kg/injection, schedule: Q01DX009 (ip), vehicle: Klucel (hydroxypropylcellulose) (HPC)) was 99 % of control and the T/C (dose: 24.0 mg/kg/injection, schedule: Q01DX009 (ip), vehicle: Klucel (hydroxypropylcellulose) (HPC)) was 95 % of control. The T/C (dose: 48.0 mg/kg/injection, schedule: Q01DX009 (ip), vehicle: Klucel (hydroxypropylcellulose) (HPC)) was 99 % of control.
For `CC(C)NC(=O)N(c1ccccc1)c1ccccc1`, the T/C (dose: 75.0 mg/kg/injection, schedule: Q01DX009 (ip), vehicle: gum acacia) was 99 % of control, the T/C (dose: 150.0 mg/kg/injection, schedule: Q01DX009 (ip), vehicle: gum acacia) was 103 % of control and the T/C (dose: 300.0 mg/kg/injection, schedule: Q01DX009 (ip), vehicle: gum acacia) was 99 % of control.
For `ClC=P(c1ccccc1)(c1ccccc1)c1ccccc1`, the T/C [4] was 90 % of control, the T/C [5] was 90 % of control and the T/C (dose: 33.0 mg/kg/injection, schedule: Q04DX003 (ip), vehicle: saline with Tween-80) was 91 % of control. The T/C [6] was 92 % of control and 95 % of control, the T/C (dose: 50.0 mg/kg/injection, schedule: Q04DX003 (ip), vehicle: saline with Tween-80) was 152 % of control and the T/C (dose: 75.0 mg/kg/injection, schedule: Q04DX003 (ip), vehicle: saline with Tween-80) was 86 % of control.
`Clc1ccc(/C=N\N=C\c2ccc(Cl)c(Cl)c2)cc1Cl` was tested, and the T/C [1] was 90 % of control and the T/C [2] was 90 % of control.
`COc1cc(Cc2nccc3cc(OC)c(OC)cc23)c(C(C)=O)c(OC)c1` was tested, and the T/C (dose: 10.0 mg/kg/injection, schedule: Q01DX009 (ip), vehicle: saline) was 101 % of control, the T/C (dose: 20.0 mg/kg/injection, schedule: Q01DX009 (ip), vehicle: saline) was 107 % of control and the T/C (dose: 40.0 mg/kg/injection, schedule: Q01DX009 (ip), vehicle: saline) was 107 % of control. The T/C (dose: 80.0 mg/kg/injection, schedule: Q01DX009 (ip), vehicle: saline) was 107 % of control.
With `COC(=O)[C@H]1[C@H]2C[C@@H]3c4[nH]c5cc(OC)ccc5c4CCN3C[C@H]2C[C@@H](OC(=O)c2cc(OC)c(OC)c(OC)c2)[C@@H]1OC` the T/C (dose: 0.04 mg/kg/injection, schedule: Q01DX009 (ip), vehicle: saline) was 91 % of control, the T/C (dose: 0.09 mg/kg/injection, schedule: Q01DX009 (ip), vehicle: saline) was 91 % of control and the T/C (dose: 0.19 mg/kg/injection, schedule: Q01DX009 (ip), vehicle: saline) was 90 % of control. The T/C (dose: 0.39 mg/kg/injection, schedule: Q01DX009 (ip), vehicle: saline) was 91 % of control and the T/C (dose: 0.78 mg/kg/injection, schedule: Q01DX009 (ip), vehicle: saline) was 88 % of control.
With `CSCCC(NC(=O)c1ccccc1)C(=O)O` (stereo not drawn) the T/C [7] was 89 % of control, the T/C [4] was 104 % of control and the T/C [8] was 100 % of control. The T/C [5] was 97 % of control, the T/C [9] was 88 % of control and the T/C [6] was 99 % of control. The T/C [1] was 88 % of control.
With `O=C(NO)N/N=C/c1ccc(/C=N/NC(=O)NO)cc1` the T/C (dose: 100.0 mg/kg/injection, schedule: Q04DX003 (ip), vehicle: saline with Tween-80) was 100 % of control, the T/C (dose: 200.0 mg/kg/injection, schedule: Q04DX003 (ip), vehicle: saline with Tween-80) was 102 % of control and the T/C (dose: 400.0 mg/kg/injection, schedule: Q04DX003 (ip), vehicle: saline with Tween-80) was 90 % of control.
